# In PubChem BioAssay (NCI):
# Several values for one entry are separate records, joined by “and”; a condition that tells them apart may be missing. Identical values can stand only once.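 Each compound was tested at five concentrations against cells in 96-well plates for 48 hours. GI50: concentration for 50% inhibition of growth. TGI: concentration producing complete growth inhibition.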
# What was measured:
# Experiment in all cases: growth of human tumour cells (NCI), 48 h
# A498 renal = system: A498 renal
# HT29 colon = system: HT29 colon
# IGROV1 ovarian = system: IGROV1 ovarian
# K-562 leukemia = system: K-562 leukemia
# M14 melanoma = system: M14 melanoma
# MALME-3M melanoma = system: MALME-3M melanoma
# NCI-H522 lung = system: NCI-H522 lung
# TK-10 renal = system: TK-10 renal
# MCF7 breast = system: MCF7 breast
# MDA-MB-435 = system: MDA-MB-435
Compound,TGI (A498 renal),TGI (HT29 colon),TGI (IGROV1 ovarian),TGI (K-562 leukemia),TGI (M14 melanoma),TGI (MALME-3M melanoma),TGI (NCI-H522 lung),TGI (TK-10 renal),GI50 (HT29 colon),GI50 (IGROV1 ovarian),GI50 (K-562 leukemia),GI50 (M14 melanoma),GI50 (MALME-3M melanoma),GI50 (MCF7 breast),TGI (MCF7 breast),GI50 (MDA-MB-435),TGI (MDA-MB-435),GI50 (NCI-H522 lung),GI50 (TK-10 renal),GI50 (A498 renal)
NC1=NN(c2ccccc2)C(=O)C1C(=O)C(=O)Nc1ccc(Cl)cc1 (stereo not given),> 100 µM,> 100 µM,> 100 µM,> 100 µM,> 100 µM,> 100 µM,> 100 µM,> 100 µM,–,–,–,–,–,–,–,–,–,–,–,–
C#CCN(N=O)C(=O)NC(CCCCNC(=O)OCc1ccccc1)C(=O)OCc1ccccc1 (stereo not given),> 100 µM,46.9 µM,> 100 µM,50.5 µM,56.6 µM,65.1 µM,31.7 µM,86 µM,–,–,–,–,–,–,–,–,–,–,–,–
O=S(=O)(C1=CC(S(=O)(=O)c2ccccc2)COC1)c1ccccc1 (stereo not given),–,> 100 µM,> 100 µM,> 100 µM,> 100 µM,> 100 µM,> 100 µM,> 100 µM,–,–,–,–,–,–,–,–,–,–,–,–
N#CCCN(CCC#N)c1ccc(/C=C(/NC(=O)c2cc([N+](=O)[O-])ccc2Cl)C(=O)N=[N+]=[N-])cc1,> 100 µM,> 100 µM,> 100 µM,> 100 µM,> 100 µM,> 100 µM,> 100 µM,> 100 µM,–,–,–,–,–,–,–,–,–,–,–,–
O/N=C1/CCC/C1=C\c1ccccc1,–,–,> 100 µM,> 100 µM,> 100 µM,> 100 µM,> 100 µM,> 100 µM,–,–,–,–,–,–,–,–,–,–,–,–
CC(=O)OC1C[C@H]2C(OC(=O)c3ccccc3)C3C4(OC(C)=O)COC4C[C@H](OC(C)=O)[C@@]3(C)C(OC(C)=O)[C@H](OC(C)=O)C(=C1C)C2(C)C (stereo not given in full),> 100 µM,> 100 µM,> 100 µM,> 100 µM,> 100 µM,> 100 µM,79.2 µM,> 100 µM,–,–,–,–,–,–,–,–,–,–,–,–
Nc1cn(C2OC(CC(c3ccccc3)(c3ccccc3)c3ccccc3)C(O)C2O)c(=O)[nH]c1=O (stereo not given),95.5 µM,58.8 µM,70.7 µM,54.4 µM,48.6 µM,55.7 µM,38.3 µM,96.2 µM,–,–,–,–,–,–,–,–,–,–,–,–
O=C(CCc1nc(=S)[nH][nH]1)Nc1cc(Cl)ccc1Cl,> 100 µM,> 100 µM,> 100 µM,> 100 µM,> 100 µM,> 100 µM,> 100 µM,> 100 µM,–,–,–,–,–,–,–,–,–,–,–,–
NC(CCSCC(F)(F)F)C(=O)O (stereo not given),> 100 µM,> 100 µM,> 100 µM,> 100 µM,> 100 µM,> 100 µM,> 100 µM,> 100 µM,–,–,–,–,–,–,–,–,–,–,–,–
CC1(C)OB(c2ccc(N(CCOS(C)(=O)=O)CCOS(C)(=O)=O)cc2)OC1(C)C,–,> 100 µM,35.4 µM,> 86.2 µM,13.7 µM,46.1 µM,74.5 µM,56.4 µM,30 µM,4.89 µM,16300 nM,3.01 µM,12.9 µM,17800 nM,> 83.8 µM,23 µM,53.4 µM,14.3 µM,18.9 µM,–
CC(=O)NNc1nc(C)c(C(=O)NNC(=O)C(=O)Nc2ccc(Cl)c([N+](=O)[O-])c2)s1,–,> 100 µM,> 100 µM,74.4 µM,> 100 µM,> 100 µM,79.5 µM,> 100 µM,–,–,–,–,–,–,–,–,–,–,–,–
O=C1Cc2c(-c3ccccc3)cc(-c3ccccc3)nc2-c2ccccc2N1,59.2 µM,28 µM,68.5 µM,> 100 µM,17.5 µM,> 100 µM,30.2 µM,5.68 µM,–,–,–,–,–,–,–,–,> 100 µM,–,2.48 µM,–
O=C(CCC(=O)Nc1ccccc1C(F)(F)F)N/N=C1\C(=N\NC(=O)CCC(=O)Nc2ccccc2C(F)(F)F)C(c2ccc3c(c2)OCO3)Oc2ccccc21 (stereo not given),> 100 µM,> 100 µM,> 100 µM,> 100 µM,> 100 µM,> 100 µM,> 72.8 µM,> 100 µM,–,–,–,–,–,–,–,–,–,–,–,–
Cc1ccc2c(c1)[n+](=O)c(C(=O)c1cccs1)c(C(F)(F)F)n2[O-],–,50 µM,0.332 µM,50 µM and 19.5 µM,50 µM and 26.2 µM,–,–,3.22 µM,2.76 µM,–,1010 nM and 466 nM,2.99 µM and 4.32 µM,–,875 nM and 456 nM,3.79 µM and 21.5 µM,1.37 µM and 1.22 µM,5.41 µM and 9.08 µM,1.37 µM and 0.23 µM,0.718 µM,–
CCc1cccc(C(C)C)c1NC(=O)CC1Sc2ccccc2NC1=O (stereo not given),> 100 µM,> 100 µM,> 100 µM,> 100 µM,> 100 µM,> 100 µM,97.6 µM,> 100 µM,–,–,–,–,–,–,–,–,–,–,–,–
Cc1noc2cccc(O)c12,> 100 µM,> 100 µM,> 100 µM,> 100 µM,> 100 µM,> 100 µM,> 100 µM,> 100 µM,–,–,–,–,–,–,–,–,–,–,–,–
COc1ccc(C(c2ccccc2C(=O)O)c2ccc(OC)c3ccccc23)c2ccccc12,39 µM,27.5 µM,25.5 µM,> 100 µM,33 µM,27.9 µM,32.7 µM,45.3 µM,–,–,–,–,–,–,–,–,–,–,–,–
O=C1c2c(O)cccc2C(C(=O)CCCCCC(=O)C2c3cccc(O)c3C(=O)c3c(O)cccc32)c2cccc(O)c21,10.9 µM and 37.6 µM,11.4 µM and 23.1 µM,6.13 µM and 28.6 µM,25 µM and 12.5 µM,2.5 µM and 16.8 µM,5.87 µM and 15.3 µM,–,7.61 µM and 18.7 µM,11.8 µM,12.5 µM,2860 nM,7.79 µM,8.38 µM,–,–,–,–,6.72 µM,8.83 µM,21 µM
NC(Cc1ccccc1)C(=O)OCN1C(=O)C2C3C=CC(C2C1=O)C1C2C(=O)N(COC(=O)C(N)Cc4ccccc4)C(=O)C2C31 (stereo not given),> 100 µM,> 100 µM,> 100 µM and 70.7 µM,63.2 µM and > 100 µM,35 µM and 33.9 µM,–,–,> 100 µM,–,–,–,–,–,–,–,–,–,–,–,> 100 µM and 46 µM
O=C(NCCCCCCCCCCCCNC(=O)c1cnc2ccccc2n1)c1cnc2ccccc2n1,> 100 µM,> 100 µM,> 100 µM,> 100 µM,> 100 µM,> 100 µM,> 100 µM,–,–,–,–,–,–,–,–,–,–,–,–,–
CC(Oc1cc2oc(=O)cc(-c3ccccc3)c2cc1Cl)C(=O)O (stereo not given),> 100 µM,> 100 µM,> 100 µM,> 100 µM,> 100 µM,> 100 µM,> 100 µM,> 100 µM,–,–,–,–,–,–,–,–,–,–,–,–
CCn1cnc(C[C@H](NC(=O)[C@H](CCCCNC(=O)Nc2cc(C(F)(F)F)cc(C(F)(F)F)c2)NC(=O)Nc2cc(C(F)(F)F)cc(C(F)(F)F)c2)C(=O)OC)c1,> 10 µM,> 10 µM,> 10 µM,–,> 10 µM,> 10 µM,> 10 µM,> 10 µM,3.97 µM,5.27 µM,–,6.29 µM,> 10 µM,3510 nM,> 10 µM,8.46 µM,> 10 µM,5.19 µM,7.46 µM,> 10 µM
